Assay results reported in PubChem BioAssay (NCI).
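Where inhibition never reached the appropriate level, the endpoint shown equals the highest concentration tested. Otherwise, values were interpolated linearly from a five-concentration, 48-hour dose response in 96-well plates. TGI marks complete inhibition of growth.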

Legend:
Assay in all cases: NCI tumour cell line growth inhibition, 48 h
IGROV1 ovarian = test system: IGROV1 ovarian
K-562 leukemia = test system: K-562 leukemia
SK-MEL-5 melanoma = test system: SK-MEL-5 melanoma
HCT-116 colon = test system: HCT-116 colon
KM20L2 colon = test system: KM20L2 colon
HOP-62 NSCLC = test system: HOP-62 NSCLC
SN12C renal = test system: SN12C renal
XF 498 CNS = test system: XF 498 CNS
HS 578T breast = test system: HS 578T breast
KM12 colon = test system: KM12 colon
PC-3 prostate = test system: PC-3 prostate
LOX IMVI melanoma = test system: LOX IMVI melanoma
A498 renal = test system: A498 renal
HL-60(TB) leukemia = test system: HL-60(TB) leukemia
DU-145 prostate = test system: DU-145 prostate
HOP-18 NSCLC = test system: HOP-18 NSCLC
RXF 393 renal = test system: RXF 393 renal
NCI-H23 lung = test system: NCI-H23 lung
MALME-3M melanoma = test system: MALME-3M melanoma
ACHN renal = test system: ACHN renal
NCI-H522 lung = test system: NCI-H522 lung
SK-MEL-2 melanoma = test system: SK-MEL-2 melanoma
MOLT-4 leukemia = test system: MOLT-4 leukemia
SK-OV-3 ovarian = test system: SK-OV-3 ovarian
SNB-19 CNS = test system: SNB-19 CNS
SF-268 CNS = test system: SF-268 CNS
CAKI-1 renal = test system: CAKI-1 renal
NCI-H460 lung = test system: NCI-H460 lung
OVCAR-4 ovarian = test system: OVCAR-4 ovarian
SF-539 CNS = test system: SF-539 CNS
M14 melanoma = test system: M14 melanoma
RPMI-8226 leukemia = test system: RPMI-8226 leukemia
NCI-H226 lung = test system: NCI-H226 lung
SNB-78 CNS = test system: SNB-78 CNS
OVCAR-8 ovarian = test system: OVCAR-8 ovarian
SF-295 CNS = test system: SF-295 CNS
OVCAR-5 ovarian = test system: OVCAR-5 ovarian
RXF-631 renal = test system: RXF-631 renal
HCC-2998 colon = test system: HCC-2998 colon
DLD-1 colon = test system: DLD-1 colon
786-0 renal = test system: 786-0 renal
DMS 114 small cell lung = test system: DMS 114 small cell lung
SW-620 colon = test system: SW-620 colon
SK-MEL-28 melanoma = test system: SK-MEL-28 melanoma
LXFL 529 NSCLC = test system: LXFL 529 NSCLC
HT29 colon = test system: HT29 colon
NCI/ADR-RES ovarian = test system: NCI/ADR-RES ovarian
BT-549 breast = test system: BT-549 breast
M19-MEL melanoma = test system: M19-MEL melanoma
SR leukemia = test system: SR leukemia
TK-10 renal = test system: TK-10 renal
SNB-75 CNS = test system: SNB-75 CNS
DMS 273 small cell lung = test system: DMS 273 small cell lung
EKVX NSCLC = test system: EKVX NSCLC
A549 NSCLC = test system: A549 NSCLC
COLO 205 colon = test system: COLO 205 colon
U251 CNS = test system: U251 CNS
MDA-MB-231 breast = test system: MDA-MB-231 breast
HCT-15 colon = test system: HCT-15 colon
CCRF-CEM leukemia = test system: CCRF-CEM leukemia
UACC-62 melanoma = test system: UACC-62 melanoma
UACC-257 melanoma = test system: UACC-257 melanoma
MCF7 breast = test system: MCF7 breast
T-47D breast = test system: T-47D breast
MDA-N = test system: MDA-N
OVCAR-3 ovarian = test system: OVCAR-3 ovarian
UO-31 renal = test system: UO-31 renal
MDA-MB-435 = test system: MDA-MB-435
HOP-92 NSCLC = test system: HOP-92 NSCLC
SN12K1 renal = test system: SN12K1 renal

Structure (SMILES): COC(=O)C1=C(C=O)C2C=CC1C2 (stereo not given)
- TGI (IGROV1 ovarian): > 100 µM
- TGI (K-562 leukemia): 74.5 µM
- TGI (SK-MEL-5 melanoma): > 100 µM
- TGI (HCT-116 colon): > 76.3 µM
- TGI (KM20L2 colon): > 100 µM
- TGI (HOP-62 NSCLC): > 100 µM
- TGI (SN12C renal): > 90.1 µM
- TGI (XF 498 CNS): 65.3 µM
- TGI (HS 578T breast): > 100 µM
- TGI (KM12 colon): > 100 µM
- TGI (PC-3 prostate): > 100 µM
- TGI (LOX IMVI melanoma): > 72.3 µM
- TGI (A498 renal): > 100 µM
- TGI (HL-60(TB) leukemia): 50.6 µM
- TGI (DU-145 prostate): > 100 µM
- TGI (HOP-18 NSCLC): > 91.4 µM
- TGI (RXF 393 renal): > 100 µM
- TGI (NCI-H23 lung): > 100 µM
- TGI (MALME-3M melanoma): > 100 µM
- TGI (ACHN renal): > 81.2 µM
- TGI (NCI-H522 lung): 61.4 µM
- TGI (SK-MEL-2 melanoma): > 100 µM
- TGI (MOLT-4 leukemia): 71.2 µM
- TGI (SK-OV-3 ovarian): > 100 µM
- TGI (SNB-19 CNS): > 100 µM
- TGI (SF-268 CNS): > 100 µM
- TGI (CAKI-1 renal): > 56.2 µM
- TGI (NCI-H460 lung): > 100 µM
- TGI (OVCAR-4 ovarian): > 100 µM
- TGI (SF-539 CNS): > 100 µM
- TGI (M14 melanoma): 67.1 µM
- TGI (RPMI-8226 leukemia): > 89200 nM
- TGI (NCI-H226 lung): > 100 µM
- TGI (SNB-78 CNS): > 100 µM
- TGI (OVCAR-8 ovarian): > 94 µM
- TGI (SF-295 CNS): > 100 µM
- TGI (OVCAR-5 ovarian): > 100 µM
- TGI (RXF-631 renal): > 100 µM
- TGI (HCC-2998 colon): > 100 µM
- TGI (DLD-1 colon): 78.5 µM
- TGI (786-0 renal): > 100 µM
- TGI (DMS 114 small cell lung): > 84.6 µM
- TGI (SW-620 colon): 62.6 µM
- TGI (SK-MEL-28 melanoma): > 90.2 µM
- TGI (LXFL 529 NSCLC): 39.7 µM
- TGI (HT29 colon): > 79.2 µM
- TGI (NCI/ADR-RES ovarian): > 100 µM
- TGI (BT-549 breast): > 100 µM
- TGI (M19-MEL melanoma): > 70.3 µM
- TGI (SR leukemia): > 100 µM
- TGI (TK-10 renal): > 76 µM
- TGI (SNB-75 CNS): > 100 µM
- TGI (DMS 273 small cell lung): > 65.1 µM
- TGI (EKVX NSCLC): > 100 µM
- TGI (A549 NSCLC): > 100 µM
- TGI (COLO 205 colon): 66.3 µM
- TGI (U251 CNS): > 100 µM
- TGI (MDA-MB-231 breast): > 100 µM
- TGI (HCT-15 colon): 62.2 µM
- TGI (CCRF-CEM leukemia): 55 µM
- TGI (UACC-62 melanoma): > 100 µM
- TGI (UACC-257 melanoma): 71.3 µM
- TGI (MCF7 breast): > 100 µM
- TGI (T-47D breast): > 100 µM
- TGI (MDA-N): > 100 µM
- TGI (OVCAR-3 ovarian): 95.5 µM
- TGI (UO-31 renal): > 100 µM
- TGI (MDA-MB-435): > 100 µM
- TGI (HOP-92 NSCLC): > 100 µM

Structure (SMILES): CN(C)CC1CC/C(=C\c2ccc(Cl)cc2)C1=O (stereo not given)
- TGI (IGROV1 ovarian): 31.1 µM
- TGI (K-562 leukemia): 4.46 µM
- TGI (SK-MEL-5 melanoma): 24.2 µM
- TGI (HCT-116 colon): 9.41 µM
- TGI (KM20L2 colon): 29.7 µM
- TGI (HOP-62 NSCLC): 41.5 µM
- TGI (SN12C renal): 20.5 µM
- TGI (XF 498 CNS): 19.8 µM
- TGI (KM12 colon): 13.7 µM
- TGI (SN12K1 renal): 5.15 µM
- TGI (LOX IMVI melanoma): 6.87 µM
- TGI (A498 renal): 24 µM
- TGI (HL-60(TB) leukemia): 2.88 µM
- TGI (HOP-18 NSCLC): 34 µM
- TGI (RXF 393 renal): 8.66 µM
- TGI (NCI-H23 lung): 21.8 µM
- TGI (MALME-3M melanoma): 15 µM
- TGI (ACHN renal): 25.7 µM
- TGI (NCI-H522 lung): 6.94 µM
- TGI (SK-MEL-2 melanoma): 26.6 µM
- TGI (MOLT-4 leukemia): 2.75 µM
- TGI (SK-OV-3 ovarian): 24.5 µM
- TGI (SNB-19 CNS): 30.1 µM
- TGI (SF-268 CNS): 19.9 µM
- TGI (CAKI-1 renal): 12.9 µM
- TGI (NCI-H460 lung): 41.6 µM
- TGI (OVCAR-4 ovarian): 29.1 µM
- TGI (SF-539 CNS): 27.3 µM
- TGI (M14 melanoma): 22.5 µM
- TGI (RPMI-8226 leukemia): 2410 nM
- TGI (NCI-H226 lung): 35.8 µM
- TGI (SNB-78 CNS): 40.4 µM
- TGI (OVCAR-8 ovarian): 12.8 µM
- TGI (SF-295 CNS): 35.5 µM
- TGI (OVCAR-5 ovarian): 34.3 µM
- TGI (RXF-631 renal): 38.1 µM
- TGI (HCC-2998 colon): 18.8 µM
- TGI (DLD-1 colon): 12.5 µM
- TGI (786-0 renal): 6.79 µM
- TGI (DMS 114 small cell lung): 20.7 µM
- TGI (SW-620 colon): 7.44 µM
- TGI (SK-MEL-28 melanoma): 10.4 µM
- TGI (LXFL 529 NSCLC): 4.13 µM
- TGI (HT29 colon): 23.7 µM
- TGI (NCI/ADR-RES ovarian): 16.1 µM
- TGI (M19-MEL melanoma): 10.7 µM
- TGI (TK-10 renal): 21.7 µM
- TGI (SNB-75 CNS): 28.7 µM
- TGI (DMS 273 small cell lung): 12.9 µM
- TGI (EKVX NSCLC): 30.1 µM
- TGI (A549 NSCLC): 42.1 µM
- TGI (COLO 205 colon): 12 µM
- TGI (U251 CNS): 14 µM
- TGI (HCT-15 colon): 9.75 µM
- TGI (CCRF-CEM leukemia): 2.89 µM
- TGI (UACC-62 melanoma): 21.7 µM
- TGI (UACC-257 melanoma): 21.3 µM
- TGI (MCF7 breast): 7.47 µM
- TGI (OVCAR-3 ovarian): 18.7 µM
- TGI (UO-31 renal): 30.5 µM
- TGI (HOP-92 NSCLC): 22.5 µM
